Key:
[1] = test system: human embryonic fibroblasts (HEF); assay: cDC1 reprogramming efficiency of human embryonic fibroblasts, flow cytometry for CD45+HLA-DR+ cells at day 9; assay type: cell-based; settings: for effect on cDC1 reprogramming efficiency when co-expressed with PU.1, IRF8 and BATF3: HEF co-transduced with TetO-PIB, M2rtTA and the individual factor
Protocol: HEFs, HDFs and Clec9a-tdTomato MEFs were seeded at a density of 40,000 cells per well and MSCs at a density of 50,000 cells per well on 0.1% gelatin coated 6-well plates. On the following day, cells were incubated overnight with either a ratio of 1:1 TetO-PIB and M2rtTA, SFFV-PIB-GFP or SFFV-GFP lentiviral particles in media supplemented with 8 μg/ml polybrene. Cells were transduced overnight twice in consecutive days and media replaced in between. After the second transduction, media was replaced by normal growth media (day 0). When using TetO-PIB, media was supplemented with Dox (1 μg/ml). Media was changed every 2-3 days for the duration of cultures. When stated, media was supplemented with LPS (100 ng/ml, Enzo), Poly I:C (25 μg/ml, InvivoGen) and R848 (3 μg/ml, InvivoGen) overnight. Cytokines were added at day 2 and kept for the duration of cultures; For reprogramming in xeno-free conditions, MSCs were cultured in X-Vivo 15 (Lonza) after transduction and media changed every 2-3 days for the duration of cultures.
For the analysis of surface marker expression, human and mouse cells were dissociated and incubated with antibodies diluted in PBS 5% FBS at 4° C. for 30 minutes in the presence of mouse or rat serum (1/100, GeneTex), for human and mouse cells respectively, to block unspecific binding. Cells were washed and resuspended in PBS 5% FBS and analyzed in BD FACSCanto II or BD LSRFortessa flow cytometers (BD Biosciences), unless stated otherwise. DAPI was used for dead cell exclusion. Flow cytometry data were analyzed using FlowJo software (FLOWJO, LLC, version 10.6.1). All flow cytometry analyses were performed in live single cell gates.
Coding regions of ID2, TXNIP, ZFP36, PLEK, SUB1, JUNB, CREM, KLF4, MXD1, LITAF, IRF7, FOS, NMI, TFEC, SP110, IRF5, STAT2, BATF, ZNF267, IRF1, RELB and BATF2 were individually cloned in the pFUW-TetO plasmid. […] Reprogramming efficiency was evaluated by flow cytometry in HEFs 9 days after transcription factor overexpression.
17 human hematopoietic cytokines including inflammatory mediators (Table 3) were individually added to the culture media 2 days after PIB induction in HEFs, and reprogramming efficiency was measured at day 9. Changes in reprogramming efficiency were analysed using both single cytokines and combinations of two or three cytokines.
The impact on reprogramming efficiency after a combination of cytokine treatment and SFFV-driven PIB induction was evaluated. The scPred system was used for integration with “natural” DCs. See previous Examples for experimental details.

[2] = test system: Clec9a-tdTomato mouse embryonic fibroblasts (MEFs); assay: Replacement of PU.1 by homologs in cDC1 reprogramming of Clec9a-tdTomato MEFs; assay type: cell-based; settings: for tdTomato^+ cells (Clec9a reporter activation): factor in combination with IRF8 and BATF3
Protocol: Coding regions of SPIB and SPIC were individually cloned in the pFUW-TetO plasmid. Lentiviral particles encoding each individual transcription factor or the reverse tetracycline transactivator M2rtTA under the control of constitutively active human ubiquitin C promoter (pFUW-UbC-M2rtTA) were used for co-transduction (Rosa et al. 2018). Reprogramming efficiency was evaluated by flow cytometry in Clec9a-tdTomato mouse embryonic fibroblasts (MEFs) 9 days after transcription factor overexpression.

[3] = HEF with Dox-inducible PIB, individual cytokine
[4] = HEF with SFFV-PIB in the presence of anti-inflammatory cytokine

GM-CSF: cytokine
impact on reprogramming efficiency [1, 3]: did not impact reprogramming efficiency

IL-1β: cytokine
fold increase in reprogramming efficiency versus condition without cytokines ([1]; HEF with Dox-inducible PIB): 3 fold

IL-6: cytokine
fold increase in reprogramming efficiency versus condition without cytokines ([1]; HEF with Dox-inducible PIB): 2.5 fold

SPIB: ETS-domain transcription factor, PU.1 homolog, SEQ ID NO: 23
reporter activation by the factor alone [2]: not able to activate the DC-specific reporter | tdTomato^+ cells (Clec9a reporter activation) [2]: about 8.14±1.16% | tdTomato^+ cells co-expressing CD45 and MHC-II ([2]; factor in combination with IRF8 and BATF3, gated in tdTomato^+): 33.63±3.76% | ability to replace PU.1 in cDC1 reprogramming ([2]; with IRF8 and BATF3): could replace PU.1 | fold increase in tdTomato^+ cells co-expressing CD45 and MHC-II in comparison to PU.1 ([2]; with IRF8 and BATF3): 2 fold

SPIC: ETS-domain transcription factor, PU.1 homolog, SEQ ID NO: 25
reporter activation by the factor alone [2]: not able to activate the DC-specific reporter | tdTomato^+ cells (Clec9a reporter activation) [2]: 1.46±0.73% | ability to replace PU.1 in cDC1 reprogramming ([2]; with IRF8 and BATF3): could replace PU.1

TGF-β
fold reduction of reprogramming efficiency [1, 4]: 2 fold | impact on CD40 expression in hiDCs [1, 4]: did not impact CD40 expression

TNF-α
fold increase in reprogramming efficiency versus condition without cytokines ([1]; HEF with Dox-inducible PIB): 3 fold

B1: IL-10: anti-inflammatory cytokine (protein, UniProt P22301 19-178, looked up)
Interleukin-10: SPGQGTQSENSCTHFPGNLPNMLRDLRDAFSRVKTFFQMKDQLDNLLLKESLLEDFKGYLGCQALSEMIQFYLEEVMPQAENQDPDIKAHVNSLGENLKTLRLRLRRCHRFLPCENKSKAVEQVKNAFNKLQEKGIYKAMSEFDIFINYIEAYMTMKIRN
impact on CD40 expression in hiDCs [1, 4]: did not impact CD40 expression | impact on reprogramming efficiency [1, 4]: did not impact reprogramming efficiency

B2: BATF: nuclear basic leucine zipper transcription factor, SEQ ID NO: 19 (protein, listed as Homo sapiens)
chain: MPHSSDSSDSSFSRSPPPGKQDSSDDVRRVQRREKNRIAAQKSRQRQTQKADTLHLESEDLEKQNAALRKEIKQLTEELKYFTSVLNSHEPLCSVLAASTPSPPEVVYSAHAFHQPHVSSPRFQP
modifications: basic leucine zipper transcriptional factor ATF-like [Homo sapiens], peptide sequence
effect on cDC1 reprogramming efficiency when co-expressed with PU.1, IRF8 and BATF3 [1]: increased cDC1 reprogramming efficiency

B3: Oncostatin M: cytokine (protein, UniProt P13725 26-221, looked up)
Oncostatin-M: AAIGSCSKEYRVLLGQLQKQTDLMQDTSRLLDPYIRIQGLDVPKLREHCRERPGAFPSEETLRGLGRRGFLQTLNATLGCVLHRLADLEQRLPKAQDLERSGLNIEDLEKLQMARPNILGLRNNIYCMAQLLDNSDTAEPTKAGRGASQPPTPTPASDAFQRKLEGCRFLHGYHRFMHSVGRVFSKWGESPNRSRR
fold increase in reprogramming efficiency versus condition without cytokines ([1]; HEF with Dox-inducible PIB): 4 fold

B4: FLT3L: cytokine (protein, UniProt P49771 27-235, looked up)
Fms-related tyrosine kinase 3 …: TQDCSFQHSPISSDFAVKIRELSDYLLQDYPVTVASNLQDEELCGGLWRLVLAQRWMERLKTVAGSKMQGLLERVNTEIHFVTKCAFQPPPSCLRFVQTNISRLLQETSEQLVALKPWITRQNFSRCLELQCQPDSSTLPPPWSPRPLEATAPTAPQPPLLLLLLLPVGLLLLAAAWCLHWQRTRRRTPRPGEQVPPVPSPQDLLLVEH
impact on reprogramming efficiency [1, 3]: did not impact reprogramming efficiency

B5: IRF7: transcription factor of the interferon regulatory factor family, SEQ ID NO: 21 (protein, listed as Homo sapiens)
chain: MPVPERPAAGPDSPRPGTRRAAPRVLFGEWLLGEISSGCYEGLQWLDEARTCFRVPWKHFARKDLSEADARIFKAWAVARGRWPPSSRGGGPPPEAETAERAGWKTNFRCALRSTRRFVMLRDNSGDPADPHKVYALSRELCWREGPGTDQTEAEAPAAVPPPQGGPPGPFLAHTHAGLQAPGPLPAPAGDKGDLLLQAVQQSCLADHLLTASWGADPVPTKAPGEGQEGLPLTGACAGGPGLPAGELYGWAVETTPSPGPQPAALTTGEAAAPESPHQAEPYLSPSPSACTAVQEPSPGALDVTIMYKGRTVLQKVVGHPSCTFLYGPPDPAVRATDPQQVAFPSPAELPDQKQLRYTEELLRHVAPGLHLELRGPQLWARRMGKCKVYWEVGGPPGSASPSTPACLLPRNCDTPIFDFRVFFQELVEFRARQRRGSPRYTIYLGFGQDLSAGRPKEKSLVLVKLEPWLCRVHLEGTQREGVSSLDSSSLSLCLSSANSLYDDIECFLMELEQPA
modifications: Interferon regulatory factor 7 [Homo sapiens], peptide sequence
effect on cDC1 reprogramming efficiency when co-expressed with PU.1, IRF8 and BATF3 [1]: increased cDC1 reprogramming efficiency

B6: IL-4: cytokine (protein, UniProt P05112 25-153, looked up)
Interleukin-4: HKCDITLQEIIKTLNSLTEQKTLCTELTVTDIFAASKNTTEKETFCRAATVLRQFYSHHEKDTRCLGATAQQFHRHKQLIRFLKRLDRNLWGLAGLNSCPVKEANQSTLENFLERLKTIMREKYSKCSS
impact on reprogramming efficiency [1, 3]: did not impact reprogramming efficiency

Source: US20250186489A1, “REPROGRAMMING OF CELLS TO TYPE 1 CONVENTIONAL DENDRITIC CELLS OR ANTIGEN-PRESENTING CELLS” (Asgard Therapeutics AB, priority 2021, published 2025)
